Data taken from paper PMC6886798, “Expression of myeloid Src-family kinases is associated with poor prognosis in AML and influences Flt3-ITD kinase inhibitor acquired resistance” (PLoS ONE, 2019).

How the values were obtained:
Experiment in all cases: KINOMEscan
Type in all cases: binding
Conditions in all cases: 1.0 µM
PRKD2 = molecular target: T1, PRKD2 (Homo sapiens, UniProt Q9BZL6)
T1 construct: purchased Eurofins/DiscoverX KINOMEscan scanMAX
Protocol: (§1) Kinase retention to the immobilized ligand is then measured using quantitative real-time PCR for each kinase-specific DNA barcode.

PRKCQ = molecular target: T2, PRKCQ (Homo sapiens, UniProt Q04759)
T2 construct: purchased Eurofins/DiscoverX KINOMEscan scanMAX
Protocol: as §1

[1] = molecular target: T3, RPS6KA4(Kin.Dom.1-N-terminal) (Homo sapiens, UniProt O75676)
T3 construct: RPS6KA4(Kin.Dom.1-N-terminal); purchased Eurofins/DiscoverX KINOMEscan scanMAX
Protocol: as §1

SLK = molecular target: T4, SLK (Homo sapiens, UniProt Q9H2G2)
T4 construct: purchased Eurofins/DiscoverX KINOMEscan scanMAX
Protocol: as §1

SRPK3 = molecular target: T5, SRPK3 (Homo sapiens, UniProt Q9UPE1)
T5 construct: purchased Eurofins/DiscoverX KINOMEscan scanMAX
Protocol: as §1

[2] = molecular target: T6, RPS6KA5(Kin.Dom.1-N-terminal) (Homo sapiens, UniProt O75582)
T6 construct: RPS6KA5(Kin.Dom.1-N-terminal); purchased Eurofins/DiscoverX KINOMEscan scanMAX
Protocol: as §1

SGK3 = molecular target: T7, SGK3 (Homo sapiens, UniProt Q96BR1)
T7 construct: purchased Eurofins/DiscoverX KINOMEscan scanMAX
Protocol: as §1

MRCKA = molecular target: T8, MRCKA (Homo sapiens, UniProt Q5VT25)
T8 construct: purchased Eurofins/DiscoverX KINOMEscan scanMAX
Protocol: as §1

CDKL3 = molecular target: T9, CDKL3 (Homo sapiens, UniProt Q8IVW4)
T9 construct: purchased Eurofins/DiscoverX KINOMEscan scanMAX
T9 sequence (Q8IVW4 whole entry): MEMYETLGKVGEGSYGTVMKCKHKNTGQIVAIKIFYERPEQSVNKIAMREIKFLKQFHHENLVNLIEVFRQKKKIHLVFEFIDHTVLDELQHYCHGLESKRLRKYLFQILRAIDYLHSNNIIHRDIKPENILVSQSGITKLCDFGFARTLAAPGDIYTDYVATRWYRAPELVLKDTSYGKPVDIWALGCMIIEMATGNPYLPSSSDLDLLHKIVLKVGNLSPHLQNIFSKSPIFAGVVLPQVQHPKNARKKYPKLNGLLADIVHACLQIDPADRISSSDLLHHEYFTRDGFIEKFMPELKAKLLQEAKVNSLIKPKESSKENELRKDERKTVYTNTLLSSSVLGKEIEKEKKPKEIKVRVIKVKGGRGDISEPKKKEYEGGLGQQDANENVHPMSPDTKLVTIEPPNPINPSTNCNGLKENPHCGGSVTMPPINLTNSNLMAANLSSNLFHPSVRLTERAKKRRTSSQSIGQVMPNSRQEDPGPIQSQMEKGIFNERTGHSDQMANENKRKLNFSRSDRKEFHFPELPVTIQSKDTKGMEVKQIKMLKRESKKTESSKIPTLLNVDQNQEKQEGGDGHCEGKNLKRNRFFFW
Protocol: as §1

DCAMKL1 = molecular target: T10, DCAMKL1 (Homo sapiens, UniProt O15075)
T10 construct: purchased Eurofins/DiscoverX KINOMEscan scanMAX
T10 sequence (O15075 whole entry): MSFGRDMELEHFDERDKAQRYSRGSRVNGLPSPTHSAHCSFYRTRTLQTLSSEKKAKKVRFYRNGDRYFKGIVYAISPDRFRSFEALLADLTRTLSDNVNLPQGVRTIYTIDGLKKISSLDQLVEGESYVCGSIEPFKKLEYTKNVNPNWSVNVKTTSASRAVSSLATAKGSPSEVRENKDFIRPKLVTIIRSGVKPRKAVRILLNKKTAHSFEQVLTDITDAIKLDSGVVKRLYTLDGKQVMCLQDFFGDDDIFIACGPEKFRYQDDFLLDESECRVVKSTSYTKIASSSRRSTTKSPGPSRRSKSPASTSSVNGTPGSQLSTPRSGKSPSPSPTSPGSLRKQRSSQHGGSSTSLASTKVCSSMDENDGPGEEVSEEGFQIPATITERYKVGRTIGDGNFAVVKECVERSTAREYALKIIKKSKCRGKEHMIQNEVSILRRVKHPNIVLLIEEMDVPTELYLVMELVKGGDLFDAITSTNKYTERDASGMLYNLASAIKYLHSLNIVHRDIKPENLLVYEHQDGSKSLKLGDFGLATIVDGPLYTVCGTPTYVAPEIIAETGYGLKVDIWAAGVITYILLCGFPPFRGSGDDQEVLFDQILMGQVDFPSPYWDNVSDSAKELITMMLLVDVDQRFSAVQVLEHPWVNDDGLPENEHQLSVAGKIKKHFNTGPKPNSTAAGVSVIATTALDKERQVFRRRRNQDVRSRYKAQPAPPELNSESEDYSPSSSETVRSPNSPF
Protocol: as §1

EIF2AK1 = molecular target: T11, EIF2AK1 (Homo sapiens, UniProt Q9BQI3)
T11 construct: purchased Eurofins/DiscoverX KINOMEscan scanMAX
Protocol: as §1

[3] = molecular target: T12, ABL1(Q252H)-nonphosphorylated (Homo sapiens, UniProt P00519, Q252H)
T12 construct: purchased Eurofins/DiscoverX KINOMEscan scanMAX
Protocol: as §1

MYLK4 = molecular target: T13, MYLK4 (Homo sapiens, UniProt Q86YV6)
T13 construct: purchased Eurofins/DiscoverX KINOMEscan scanMAX
T13 sequence (Q86YV6 whole entry): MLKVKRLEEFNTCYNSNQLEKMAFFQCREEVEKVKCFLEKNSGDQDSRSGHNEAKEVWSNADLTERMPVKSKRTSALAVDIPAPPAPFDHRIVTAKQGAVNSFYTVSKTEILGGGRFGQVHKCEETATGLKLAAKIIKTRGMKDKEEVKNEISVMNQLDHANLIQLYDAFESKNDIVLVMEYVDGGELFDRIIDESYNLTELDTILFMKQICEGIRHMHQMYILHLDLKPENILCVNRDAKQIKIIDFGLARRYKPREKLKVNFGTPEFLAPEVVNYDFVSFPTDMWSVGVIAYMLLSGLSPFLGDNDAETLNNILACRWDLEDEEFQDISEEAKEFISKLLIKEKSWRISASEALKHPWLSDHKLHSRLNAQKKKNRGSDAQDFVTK
Protocol: as §1

CASK = molecular target: T14, CASK (Homo sapiens, UniProt O14936)
T14 construct: purchased Eurofins/DiscoverX KINOMEscan scanMAX
Protocol: as §1

DDR1 = molecular target: T15, DDR1 (Homo sapiens, UniProt Q08345)
T15 construct: purchased Eurofins/DiscoverX KINOMEscan scanMAX
Protocol: as §1

PIP5K1C = molecular target: T16, PIP5K1C (Homo sapiens, UniProt O60331)
T16 construct: purchased Eurofins/DiscoverX KINOMEscan scanMAX
T16 sequence (O60331 whole entry): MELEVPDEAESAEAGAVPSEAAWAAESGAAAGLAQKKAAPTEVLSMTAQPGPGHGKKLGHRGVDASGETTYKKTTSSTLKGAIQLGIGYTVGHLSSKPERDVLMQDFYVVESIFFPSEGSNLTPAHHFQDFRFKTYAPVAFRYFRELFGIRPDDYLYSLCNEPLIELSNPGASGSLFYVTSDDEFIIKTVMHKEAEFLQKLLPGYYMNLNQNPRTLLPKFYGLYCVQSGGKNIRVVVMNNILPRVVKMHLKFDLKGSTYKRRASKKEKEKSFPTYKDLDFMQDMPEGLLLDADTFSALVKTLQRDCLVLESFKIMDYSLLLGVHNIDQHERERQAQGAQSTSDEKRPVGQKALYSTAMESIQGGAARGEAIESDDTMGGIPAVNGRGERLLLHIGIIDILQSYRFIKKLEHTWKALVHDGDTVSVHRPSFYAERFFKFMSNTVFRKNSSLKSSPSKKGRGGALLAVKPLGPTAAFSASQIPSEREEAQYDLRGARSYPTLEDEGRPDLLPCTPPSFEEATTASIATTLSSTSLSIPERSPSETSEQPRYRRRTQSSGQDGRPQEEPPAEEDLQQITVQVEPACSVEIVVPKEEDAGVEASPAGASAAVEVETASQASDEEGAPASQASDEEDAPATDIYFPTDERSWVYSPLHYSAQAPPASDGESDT
Protocol: as §1

NDR2 = molecular target: T17, NDR2 (Homo sapiens, UniProt Q9Y2H1)
T17 construct: purchased Eurofins/DiscoverX KINOMEscan scanMAX
Protocol: as §1

TNNI3K = molecular target: T18, TNNI3K (Homo sapiens, UniProt Q59H18)
T18 construct: purchased Eurofins/DiscoverX KINOMEscan scanMAX
Protocol: as §1

[4] = molecular target: T19, ABL1(Y253F)-phosphorylated (Homo sapiens, UniProt P00519, Y253F)
T19 construct: purchased Eurofins/DiscoverX KINOMEscan scanMAX
Protocol: as §1

CSNK1E = molecular target: T20, CSNK1E (Homo sapiens, UniProt P49674)
T20 construct: purchased Eurofins/DiscoverX KINOMEscan scanMAX
Protocol: as §1

FLT3(R834Q) = molecular target: T21, FLT3(R834Q) (Homo sapiens, UniProt P36888, R834Q)
T21 construct: purchased Eurofins/DiscoverX KINOMEscan scanMAX
Protocol: as §1

CLK4 = molecular target: T22, CLK4 (Homo sapiens, UniProt Q9HAZ1)
T22 construct: purchased Eurofins/DiscoverX KINOMEscan scanMAX
T22 sequence (Q9HAZ1 whole entry): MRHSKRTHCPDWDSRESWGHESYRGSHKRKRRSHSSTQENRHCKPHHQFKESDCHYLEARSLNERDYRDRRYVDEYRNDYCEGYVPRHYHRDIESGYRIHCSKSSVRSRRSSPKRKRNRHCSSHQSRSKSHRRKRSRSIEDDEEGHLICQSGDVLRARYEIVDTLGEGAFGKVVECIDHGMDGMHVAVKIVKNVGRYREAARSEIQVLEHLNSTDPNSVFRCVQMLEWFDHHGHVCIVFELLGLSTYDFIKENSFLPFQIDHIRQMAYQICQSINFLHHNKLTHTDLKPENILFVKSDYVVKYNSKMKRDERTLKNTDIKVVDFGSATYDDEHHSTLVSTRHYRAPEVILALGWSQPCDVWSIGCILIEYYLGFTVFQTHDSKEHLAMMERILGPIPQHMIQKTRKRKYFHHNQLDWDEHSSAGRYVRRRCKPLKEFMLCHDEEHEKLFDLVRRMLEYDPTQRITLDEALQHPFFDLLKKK
Protocol: as §1

KIT(V559D,T670I) = molecular target: T23, KIT(V559D,T670I) (Homo sapiens, UniProt P10721, T670I/V559D)
T23 construct: purchased Eurofins/DiscoverX KINOMEscan scanMAX
Protocol: as §1

STK33 = molecular target: T24, STK33 (Homo sapiens, UniProt Q9BYT3)
T24 construct: purchased Eurofins/DiscoverX KINOMEscan scanMAX
Protocol: as §1

TNIK = molecular target: T25, TNIK (Homo sapiens, UniProt Q9UKE5)
T25 construct: purchased Eurofins/DiscoverX KINOMEscan scanMAX
Protocol: as §1

PAK4 = molecular target: T26, PAK4 (Homo sapiens, UniProt O96013)
T26 construct: purchased Eurofins/DiscoverX KINOMEscan scanMAX
T26 sequence (O96013 whole entry): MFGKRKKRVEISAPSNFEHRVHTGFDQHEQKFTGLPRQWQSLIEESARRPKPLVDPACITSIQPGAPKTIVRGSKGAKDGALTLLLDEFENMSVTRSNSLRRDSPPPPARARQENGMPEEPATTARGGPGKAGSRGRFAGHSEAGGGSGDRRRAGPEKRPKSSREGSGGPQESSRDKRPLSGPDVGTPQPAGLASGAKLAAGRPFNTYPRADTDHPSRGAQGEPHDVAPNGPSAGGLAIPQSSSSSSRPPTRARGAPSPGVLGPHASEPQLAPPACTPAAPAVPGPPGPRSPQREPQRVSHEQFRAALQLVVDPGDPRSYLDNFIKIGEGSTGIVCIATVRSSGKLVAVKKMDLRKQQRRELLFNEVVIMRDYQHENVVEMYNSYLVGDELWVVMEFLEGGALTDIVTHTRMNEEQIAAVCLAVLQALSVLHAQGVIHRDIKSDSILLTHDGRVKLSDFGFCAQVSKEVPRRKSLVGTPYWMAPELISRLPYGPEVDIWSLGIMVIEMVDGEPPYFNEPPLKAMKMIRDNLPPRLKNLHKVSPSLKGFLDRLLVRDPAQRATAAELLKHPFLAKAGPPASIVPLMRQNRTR
Protocol: as §1

FGFR2 = molecular target: T27, FGFR2 (Homo sapiens, UniProt P21802)
T27 construct: purchased Eurofins/DiscoverX KINOMEscan scanMAX
Protocol: as §1

MLK2 = molecular target: T28, MLK2 (Homo sapiens, UniProt Q02779)
T28 construct: purchased Eurofins/DiscoverX KINOMEscan scanMAX
Protocol: as §1

PFCDPK1(P.falciparum) = molecular target: T29, PFCDPK1(P.falciparum) (Plasmodium falciparum, UniProt P62344)
T29 construct: purchased Eurofins/DiscoverX KINOMEscan scanMAX
T29 sequence (P62344 whole entry): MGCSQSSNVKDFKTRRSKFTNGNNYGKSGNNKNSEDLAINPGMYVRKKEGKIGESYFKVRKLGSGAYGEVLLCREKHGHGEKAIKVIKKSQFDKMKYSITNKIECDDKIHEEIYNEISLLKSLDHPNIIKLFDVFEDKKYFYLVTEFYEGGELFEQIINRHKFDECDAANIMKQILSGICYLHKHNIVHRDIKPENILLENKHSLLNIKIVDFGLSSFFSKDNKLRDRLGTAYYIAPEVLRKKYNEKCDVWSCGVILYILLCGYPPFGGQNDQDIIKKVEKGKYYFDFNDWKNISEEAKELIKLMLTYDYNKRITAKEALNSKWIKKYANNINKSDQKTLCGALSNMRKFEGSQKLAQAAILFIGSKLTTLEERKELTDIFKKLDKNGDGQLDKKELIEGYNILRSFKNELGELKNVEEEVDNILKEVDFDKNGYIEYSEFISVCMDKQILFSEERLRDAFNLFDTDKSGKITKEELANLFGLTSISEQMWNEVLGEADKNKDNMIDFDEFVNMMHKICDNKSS
Protocol: as §1

PAK3 = molecular target: T30, PAK3 (Homo sapiens, UniProt O75914)
T30 construct: purchased Eurofins/DiscoverX KINOMEscan scanMAX
Protocol: as §1

ADCK3 = molecular target: T31, ADCK3 (Homo sapiens, UniProt Q8NI60)
T31 construct: purchased Eurofins/DiscoverX KINOMEscan scanMAX
T31 sequence (Q8NI60 163-647): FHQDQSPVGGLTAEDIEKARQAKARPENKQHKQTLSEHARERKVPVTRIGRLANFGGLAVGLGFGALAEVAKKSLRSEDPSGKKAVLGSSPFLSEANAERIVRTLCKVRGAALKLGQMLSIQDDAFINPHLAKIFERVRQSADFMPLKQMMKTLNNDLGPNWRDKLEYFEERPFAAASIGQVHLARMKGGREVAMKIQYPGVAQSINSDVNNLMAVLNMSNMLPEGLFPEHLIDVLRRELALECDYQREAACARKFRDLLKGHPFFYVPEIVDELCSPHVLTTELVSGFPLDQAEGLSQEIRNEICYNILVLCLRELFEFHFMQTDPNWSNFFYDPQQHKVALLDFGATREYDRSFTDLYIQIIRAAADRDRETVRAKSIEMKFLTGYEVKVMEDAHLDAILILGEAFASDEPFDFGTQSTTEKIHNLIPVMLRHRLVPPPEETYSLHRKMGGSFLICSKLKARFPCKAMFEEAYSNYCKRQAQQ
Protocol: as §1

GSK3A = molecular target: T32, GSK3A (Homo sapiens, UniProt P49840)
T32 construct: purchased Eurofins/DiscoverX KINOMEscan scanMAX
Protocol: as §1

GSK3B = molecular target: T33, GSK3B (Homo sapiens, UniProt P49841)
T33 construct: purchased Eurofins/DiscoverX KINOMEscan scanMAX
Protocol: as §1

ZAK = molecular target: T34, ZAK (Homo sapiens, UniProt Q9NYL2)
T34 construct: purchased Eurofins/DiscoverX (KINOMEscan scanMAX service)
Protocol: as §1

[5] = molecular target: T35, ABL1(H396P)-phosphorylated (Homo sapiens, UniProt P00519, H396P)
T35 construct: purchased Eurofins/DiscoverX KINOMEscan scanMAX
Protocol: as §1

DAPK3 = molecular target: T36, DAPK3 (Homo sapiens, UniProt O43293)
T36 construct: purchased Eurofins/DiscoverX KINOMEscan scanMAX
Protocol: as §1

AKT1 = molecular target: T37, AKT1 (Homo sapiens, UniProt P31749)
T37 construct: purchased Eurofins/DiscoverX KINOMEscan scanMAX
Protocol: as §1

EPHA6 = molecular target: T38, EPHA6 (Homo sapiens, UniProt Q9UF33)
T38 construct: purchased Eurofins/DiscoverX KINOMEscan scanMAX
Protocol: as §1

TSSK3 = molecular target: T39, TSSK3 (Homo sapiens, UniProt Q96PN8)
T39 construct: DNA tag (qPCR barcode); purchased Eurofins/DiscoverX KINOMEscan scanMAX
Protocol: as §1

YES = molecular target: T40, YES (Homo sapiens, UniProt P07947)
T40 construct: purchased Eurofins/DiscoverX (KINOMEscan scanMAX service)
T40 sequence (P07947 whole entry): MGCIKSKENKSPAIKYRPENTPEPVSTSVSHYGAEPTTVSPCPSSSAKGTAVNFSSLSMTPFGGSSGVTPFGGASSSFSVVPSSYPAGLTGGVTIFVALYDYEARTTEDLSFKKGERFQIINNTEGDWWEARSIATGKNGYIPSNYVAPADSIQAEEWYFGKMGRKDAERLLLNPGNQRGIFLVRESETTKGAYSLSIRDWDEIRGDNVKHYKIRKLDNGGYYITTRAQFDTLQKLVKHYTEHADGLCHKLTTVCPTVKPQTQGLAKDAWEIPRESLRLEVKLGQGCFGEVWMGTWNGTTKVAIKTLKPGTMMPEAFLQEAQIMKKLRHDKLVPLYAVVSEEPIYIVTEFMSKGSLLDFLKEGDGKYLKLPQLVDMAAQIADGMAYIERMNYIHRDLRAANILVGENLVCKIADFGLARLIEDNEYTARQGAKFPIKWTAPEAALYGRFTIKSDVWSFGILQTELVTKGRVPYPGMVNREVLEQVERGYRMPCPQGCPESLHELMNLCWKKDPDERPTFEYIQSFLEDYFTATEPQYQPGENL
Protocol: as §1

For `CN1CCN(C2CCC(n3cc(-c4ccc(Oc5ccccc5)cc4)c4c(N)ncnc43)CC2)CC1` (stereo not shown) [A-419259], the “% Control” value (PRKD2) was 63%, the “% Control” value (PRKCQ) was 66% and the “% Control” value [1] was 66%. For the same molecule, the “% Control” value (SLK) was 100%, the “% Control” value (SRPK3) was 99% and the “% Control” value [2] was 77%. The “% Control” value (SGK3) was 77%, the “% Control” value (MRCKA) was 98% and the “% Control” value (CDKL3) was 100%. The “% Control” value (DCAMKL1) was 43%, the “% Control” value (EIF2AK1) was 99% and the “% Control” value [3] was 0.85%. The “% Control” value (MYLK4) was 96%, the “% Control” value (CASK) was 67% and the “% Control” value (DDR1) was 65%. The “% Control” value (PIP5K1C) was 89%, the “% Control” value (NDR2) was 80% and the “% Control” value (TNNI3K) was 91%. The “% Control” value [4] was 0.35%, the “% Control” value (CSNK1E) was 1.1% and the “% Control” value (FLT3(R834Q)) was 2.7%. For the same molecule, the “% Control” value (CLK4) was 100%, the “% Control” value (KIT(V559D,T670I)) was 40% and the “% Control” value (STK33) was 30%. For the same molecule, the “% Control” value (TNIK) was 100%, the “% Control” value (PAK4) was 93% and the “% Control” value (FGFR2) was 39%. The “% Control” value (MLK2) was 29%, the “% Control” value (PFCDPK1(P.falciparum)) was 0% and the “% Control” value (PAK3) was 36%. The “% Control” value (ADCK3) was 100%, the “% Control” value (GSK3A) was 100% and the “% Control” value (GSK3B) was 95%. For the same molecule, the “% Control” value (ZAK) was 13%, the “% Control” value [5] was 0.65% and the “% Control” value (DAPK3) was 100%. The “% Control” value (AKT1) was 100%, the “% Control” value (EPHA6) was 94% and the “% Control” value (TSSK3) was 95%. For the same molecule, the “% Control” value (YES) was 0%.
